Assay results: US20120095012A1, “TOLUIDINE SULFONAMIDES AND THEIR USE” (Elara Pharmaceuticals GmbH, priority 2008, published 2012)
pEC50: −log10 of the molar value.

Experiments:
[1] = molecular target: T1, tubulin (from porcine brain) (Sus scrofa, UniProt P02550+P02554); assay: Inhibition of in vitro tubulin polymerization (OD 340 nm, 90 min); type: biochemical; settings: final absorbance at 90 min vs vehicle control, read-out: tubulin inhib. (at 10 μM)
T1 construct: prepared in-house from porcine brain using a standard procedure involving cycles of polymerization/de-polymerization; from tissue; host or cells: porcine brain
Protocol: To assess the degree of inhibition of in vitro tubulin polymerization, a tubulin solution (prepared in-house from porcine brain using a standard procedure involving cycles of polymerization/de-polymerization, (see Castoldi & Popov (2003) Protein Expr. Purif. 32(1): 83-88), was incubated with varying concentrations of compounds under polymerizing conditions and kinetic experiments performed to determine the amount of polymerization (as measured by changes in OD at 340 nm) taking place over a 90 min period.
Compound solutions were diluted in double-distilled water to yield final 10× solutions containing 5% DMSO. 5 μl solutions were then added to the wells on a 384-well clear-bottom plate (Corning #3711, Corning Inc.) in preparation for the addition of tubulin. The tubulin solution (19.6 mg/ml, in 80 mM K-PIPES [pH 6.8], 1 mM MgCl2, 1 mM EGTA) was re-suspended to a final concentration of 4 mg/ml with ice cold G-PEM buffer (80 mM PIPES [pH 6.8], 2 mM MgCl2, 0.5 mM EGTA, 10% glycerol, 1 mM GTP) and maintained on ice for at least 1 min. 50 μl was then added to the pre-dispensed compound solutions, the plate orbital shaken on a medium setting for 5s, and the first measurement begun immediately.
Experiments were carried out on a Safire^2 ™ monochromator (Tecan) preset to a stable temperature of 37° C.; the degree of polymerization was determined by measuring the absorbance of the solutions at 340 nm every minute over the 90 min cycle. Reported inhibition values were based on the final absorbance at 90 min and calculated with reference to a vehicle control (0.5% DMSO) using the minimum and maximum signals obtained for this sample.

[2] = test system: MCF-7 human breast adenocarcinoma cells; HRE-bla HCT116 cell line (colorectal carcinoma); assay: Cell proliferation assay (ATPlite luminescence); type: cell-based; settings: ATPlite readout, cell line not given
Protocol: MCF-7 human breast adenocarcinoma cells were obtained from ATCC (LGC Promochem). The CellSensor® HRE-bla HCT116 cell line (colorectal carcinoma) was obtained from Invitrogen.
Cells were grown under humidified 95% air, 5% CO2 at 37° C. in Dulbecco's modified Eagle's medium (DMEM: MCF-7) or McCoy's 5A medium (HRE-bla HCT116) supplemented with 10% fetal bovine serum (FBS), 100 U/ml penicillin and 100 μg/ml streptomycin, 2 mM L-glutamine, and blasticidin at 5 μg/ml as a selection marker (for the HRE-bla HCT116 cell line only).
Cell proliferation experiments were carried out in 96-well tissue culture plates with seeding of 2000 cells/well in 100 μl of the relevant medium. Cells were subsequently incubated under the conditions mentioned for 24 h prior to addition of compounds.
To determine the degree of inhibition of cell proliferation, cells were treated with ATPlite solution according to the manufacturer's instructions (PerkinElmer, ATPlite 1-step Luminescence ATP Detection Assay System) and luciferase readout measured on an Envision HTS multilabel plate reader (PerkinElmer) in luminescence mode according to established protocols. Raw data were imported into an ActivityBase database (IDBS, ID Business Solutions) and EC50 values calculated using the IDBS program ActivityBase XE.

[3] = test system: HIF mediated transcription; assay: Inhibition of activation of HIF mediated transcription under hypoxic conditions (CellSensor HRE-bla HCT-116 reporter, DFO-induced); type: cell-based; settings: Homo sapiens; HRE-bla HCT-116 reporter cells, deferoxamine-induced hypoxia, 24 h
Protocol: Inhibition of an activated HIF signaling response under chemically-induced hypoxic conditions due to compound treatment was determined using the CellSensor® […] HCT-116 stably transfected reporter cell line from Invitrogen according to the manufacturer's instructions. HIF is a transcriptional factor composed of the constitutively expressed HIF 1β subunit and one of three HIFα subunits (HIF1α, HIF2α, HIF3α). This assay is responsive towards HIFα activity in general. In one example, HIF-1, when stabilized by hypoxic conditions, upregulates several genes to promote cell survival in low-oxygen conditions. These include glycolysis enzymes, which allow ATP synthesis in an oxygen-independent manner, and vascular endothelial growth factor (VEGF), which promotes angiogenesis. HIF-1 acts by binding to HIF-responsive elements (HREs) in promoters that generally contain the sequence NCGTG.
Cells were maintained as described previously and seeded into 384-well, clear-bottom plates (Corning 3712) at 15000 cells/well in 32 μl assay medium (Opti-MEM [Invitrogen], 0.5% FBS, 100 U/ml penicillin, 100 μg/ml streptomycin, 0.1 mM non-essential amino acids [NEAA], 1 mM sodium pyruvate, 5 mM HEPES [pH 7.3]). Following a 2 h incubation period, compounds (4 μl) were subsequently added to the cells at 10× concentrations in 5% DMSO and incubated under normal conditions for 30 min. To induce hypoxic conditions, 4 μl of a 2 mM deferoxamine (DFO) solution was added to the cells followed by 24 h incubation under standard assay conditions (as described). Control wells included wells containing only medium (no cells) and wells treated with 0.5% DMSO instead of compound.
Prior to the readout, the Substrate Loading Solution was prepared as described in the manufacturer's protocol and 10 μl added to each well. Following a further 2 h incubation period at room temperature and in the dark, fluorescence was measured at two wavelengths (blue channel: ex. 409 nm, em. 460 nm; green channel: ex. 409 nm, em. 530 nm) on a PerkinElmer Envision HTS. For the analysis, the average signal of the cell-free wells at 460 nm and 530 nm was first subtracted from the blue and green channel data, respectively. The blue/green emission ratios were then calculated for each well, dividing the background-corrected blue emission values by the background-corrected green emission values. IC50 values were determined from these ratios using GraphPad Prism (Prism 5, GraphPad software, Inc.).

T1 sequence (P02550 whole entry): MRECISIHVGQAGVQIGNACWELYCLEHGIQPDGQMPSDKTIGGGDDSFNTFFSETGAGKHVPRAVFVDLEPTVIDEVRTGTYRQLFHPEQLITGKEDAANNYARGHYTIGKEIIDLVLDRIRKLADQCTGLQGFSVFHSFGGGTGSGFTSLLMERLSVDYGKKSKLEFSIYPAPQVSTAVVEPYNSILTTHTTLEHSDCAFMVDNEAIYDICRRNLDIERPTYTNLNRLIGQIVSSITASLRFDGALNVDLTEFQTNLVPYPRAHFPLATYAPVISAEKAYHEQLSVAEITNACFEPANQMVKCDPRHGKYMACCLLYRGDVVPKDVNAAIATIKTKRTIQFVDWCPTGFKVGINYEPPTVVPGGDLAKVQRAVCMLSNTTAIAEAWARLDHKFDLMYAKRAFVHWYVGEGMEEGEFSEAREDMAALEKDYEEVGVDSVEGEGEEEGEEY
T1 sequence (P02554 whole entry): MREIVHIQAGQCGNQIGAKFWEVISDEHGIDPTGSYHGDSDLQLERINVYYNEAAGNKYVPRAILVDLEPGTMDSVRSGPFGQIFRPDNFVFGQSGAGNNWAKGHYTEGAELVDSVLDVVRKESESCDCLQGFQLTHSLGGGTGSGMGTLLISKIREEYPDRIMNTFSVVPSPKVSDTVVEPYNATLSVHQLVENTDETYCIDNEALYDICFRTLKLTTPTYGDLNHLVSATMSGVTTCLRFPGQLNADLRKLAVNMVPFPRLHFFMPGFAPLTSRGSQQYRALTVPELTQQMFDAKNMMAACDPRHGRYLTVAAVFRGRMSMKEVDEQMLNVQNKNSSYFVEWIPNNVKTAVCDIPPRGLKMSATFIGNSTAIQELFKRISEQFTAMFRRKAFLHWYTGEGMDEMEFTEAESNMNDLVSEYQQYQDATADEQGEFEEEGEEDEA

Compound	pEC50 ([2]; Homo sapiens)	other results
Cc1ccc(S(=O)(=O)Nc2cc(-c3ccc(C#N)s3)ccc2C)s1 [Example 3, 5-Methyl-thiophene-2-sulfonic acid [5-(5-cyano-thiophen-2-yl)-2-methyl-phenyl]-amide]	> 6.30	inhibition at 10 µM [1]: < 20%
COc1ccc(S(=O)(=O)Nc2cc(-c3ccc(C#N)cc3)ccc2C)cn1 [Example 4, 6-Methoxy-pyridine-3-sulfonic acid (4′-cyano-4-methyl-biphenyl-3-yl)-amide]	> 6.30	–
CCc1ccc(S(=O)(=O)Nc2cc(-c3ccc(C#N)cc3)ccc2C)s1 [Example 5, 5-Ethyl-thiophene-2-sulfonic acid (4′-cyano-4-methyl-biphenyl-3-yl)-amide]	> 6.30	–
Cc1ccc(-c2ccc(C#N)s2)cc1NS(=O)(=O)c1ccco1 [Example 6, Furan-2-sulfonic acid [5-(5-cyano-thiophen-2-yl)-2-methyl-phenyl]-amide]	5.00 to 6.00	–
COc1ccc(S(=O)(=O)Nc2cc(-c3csc(C#N)c3)ccc2C)cn1 [Example 7, N-(5-(5-cyanothiophen-3-yl)-2-methylphenyl)-6-methoxypyridine-3-sulfonamide]	> 6.30	pEC50 [3]: > 6.30
Cc1ccc(S(=O)(=O)Nc2cc(-c3ccc(C#N)cc3)ccc2C)s1 [Example 8, N-(4′-cyano-4-methylbiphenyl-3-yl)-5-methylthiophene-2-sulfonamide]	> 6.30	pEC50 [3]: > 6.30
Cc1ccc(-c2ccc(C#N)s2)cc1NS(=O)(=O)c1cccs1 [Example 9, N-(5-(5-cyanothiophen-2-yl)-2-methylphenyl)thiophene-2-sulfonamide]	> 6.30	–
Cc1ccc(-c2ccc(C#N)s2)cc1NS(=O)(=O)c1ccsc1 [Example 10, N-(5-(5-cyanothiophen-2-yl)-2-methylphenyl)thiophene-3-sulfonamide]	6.00 to 6.30	–
Cc1ccc(-c2ccc(C#N)s2)cc1NS(=O)(=O)c1ccc(Cl)s1 [Example 11, 5-chloro-N-(5-(5-cyanothiophen-2-yl)-2-methylphenyl)thiophene-2-sulfonamide]	6.00 to 6.30	–
Cc1ccc(-c2ccc(C#N)s2)cc1NS(=O)(=O)c1cn(C)cn1 [Example 12, N-(5-(5-cyanothiophen-2-yl)-2-methylphenyl)-1-methyl-1H-imidazole-4-sulfonamide]	5.00 to 6.00	–
Cc1cc(S(=O)(=O)Nc2cc(-c3ccc(C#N)s3)ccc2C)c(C)s1 [Example 13, N-(5-(5-cyanothiophen-2-yl)-2-methylphenyl)-2,5-dimethylthiophene-3-sulfonamide]	5.00 to 6.00	–
Cc1ccc(-c2ccc(C#N)s2)cc1NS(=O)(=O)c1cccnc1 [Example 14, N-(5-(5-cyanothiophen-2-yl)-2-methylphenyl)pyridine-3-sulfonamide]	5.00 to 6.00	–
Cc1ccc(-c2ccc(C#N)s2)cc1NS(=O)(=O)c1cn(C)c(C)n1 [Example 15, N-(5-(5-cyanothiophen-2-yl)-2-methylphenyl)-1,2-dimethyl-1H-imidazole-4-sulfonamide]	5.00 to 6.00	–
Cc1ccc(-c2ccc(C#N)s2)cc1NS(=O)(=O)c1ccc(C(F)(F)F)cn1 [Example 16, N-(5-(5-cyanothiophen-2-yl)-2-methylphenyl)-5-(trifluoromethyl)pyridine-2-sulfonamide]	5.00 to 6.00	–
Cc1ccc(-c2ccc(C#N)s2)cc1NS(=O)(=O)c1c(C)noc1C [Example 17, N-(5-(5-cyanothiophen-2-yl)-2-methylphenyl)-3,5-dimethylisoxazole-4-sulfonamide]	5.00 to 6.00	–
COc1ccc(S(=O)(=O)Nc2cc(-c3ccc(C#N)c(OC)c3)ccc2C)cn1 [Example 18, N-(4′-cyano-3′-methoxy-4-methylbiphenyl-3-yl)-6-methoxypyridine-3-sulfonamide]	> 6.30	pEC50 [3]: > 6.30
Cc1cc(S(=O)(=O)Nc2cc(-c3ccc(C#N)s3)ccc2C)c(C(F)(F)F)o1 [Example 19, N-(5-(5-cyanothiophen-2-yl)-2-methylphenyl)-5-methyl-2-(trifluoromethyl)furan-3-sulfonamide]	5.00 to 6.00	–
Cc1ccc(-c2ccc(C#N)cc2)cc1NS(=O)(=O)c1sccc1C [Example 20, N-(4′-cyano-4-methylbiphenyl-3-yl)-3-methylthiophene-2-sulfonamide]	5.00 to 6.00	–
Cc1ccc(-c2ccc(C#N)cc2)cc1NS(=O)(=O)c1ccc(C#N)nc1 [Example 21, 6-cyano-N-(4′-cyano-4-methylbiphenyl-3-yl)pyridine-3-sulfonamide]	5.00 to 6.00	–
Cc1cccc(S(=O)(=O)Nc2cc(-c3ccc(C#N)s3)ccc2C)n1 [Example 22, N-(5-(5-cyanothiophen-2-yl)-2-methylphenyl)-6-methylpyridine-2-sulfonamide]	5.00 to 6.00	–
Cc1ccc(S(=O)(=O)Nc2cc(-c3ccc(C#N)cc3)ccc2C)cn1 [Example 23, N-(4′-cyano-4-methylbiphenyl-3-yl)-6-methylpyridine-3-sulfonamide]	> 6.30	pEC50 [3]: > 6.30
Cc1ccc(S(=O)(=O)Nc2cc(-c3ccc(C#N)s3)ccc2C)cn1 [Example 24, N-(5-(5-cyanothiophen-2-yl)-2-methylphenyl)-6-methylpyridine-3-sulfonamide]	> 6.30	pEC50 [3]: > 6.30
Cc1ccc(S(=O)(=O)Nc2cc(-c3ccc(C#N)s3)ccc2C)nc1 [Example 25, N-(5-(5-cyanothiophen-2-yl)-2-methylphenyl)-5-methylpyridine-2-sulfonamide]	> 6.30	–
Cc1ccc(-c2ccc(C#N)cc2)cc1NS(=O)(=O)c1ccc(Cl)nc1 [Example 26, 6-chloro-N-(4′-cyano-4-methylbiphenyl-3-yl)pyridine-3-sulfonamide]	> 6.30	–
Cc1ccc(-c2ccc(C#N)s2)cc1NS(=O)(=O)c1ccc(Cl)nc1 [Example 28, 6-chloro-N-(5-(5-cyanothiophen-2-yl)-2-methylphenyl)pyridine-3-sulfonamide]	> 6.30	–
Cc1ccc(-c2ccc(C#N)s2)cc1NS(=O)(=O)c1ccc(N(C)C)nc1 [Example 29, N-(5-(5-cyanothiophen-2-yl)-2-methylphenyl)-6-(dimethylamino)pyridine-3-sulfonamide]	> 6.30	–
N-(4′-cyano-4-methylbiphenyl-3-yl)-6-(dimethylamino)pyridine-3-sulfonamide [Example 27]	–	pEC50 [2]: 6.00 to 6.30
